Values quoted from earlier work in patent US7858803B2, “Imaging tracers for early detection and treatment of amyloid plaques caused by Alzheimer's disease and related disorders” (The General Hospital Corporation, priority 2007, dated 2010).

Assays:
brain amyloid deposits = conditions: APP23 transgenic mice, brain sections at 180 min after iv injection
[1] = normal mice, iv, at 2 min after injection

initial brain uptake [1]: 3.9 % injected dose/gm
SMILES: CNc1ccc(C=Cc2nc3ccc(OCCF)cc3o2)cc1 [BF-168, 6-(2-fluoroethoxy)-2-[2-(4-methylaminophenyl)ethenyl]-benzoxazole]
labeling of brain amyloid deposits in autoradiograms (brain amyloid deposits): selective labeling of brain amyloid deposits with little non-specific binding
